Measurements as given in PubChem BioAssay AID248 (DTP/NCI, 2004).
“And” between values parts separate entries of the source, which are not always exact repeats. Equal entries are not always repeated. Inconclusive results and toxic doses are left out. Cut-off read from the data, not from the text of the source: active = T/C of 150% or more; inactive = T/C below 125%.

Test system: L1210 leukemia ip in BDF1 mice, survival T/C
Experiment: NCI In Vivo Anticancer Drug Screen. Data for tumor model L1210 Leukemia (intraperitoneal) in B6D2F1 (BDF1) mice
Settings: endpoint: mean survival time, higher = longer survival
In short: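 Tumor cells were implanted, animals were treated, and survival was followed. The result divides the treated measurement by the vehicle-control measurement.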

[1] = dose: 100.0 mg/kg/injection, schedule: Q04DX003 (ip), vehicle: saline with Tween-80
[2] = dose: 200.0 mg/kg/injection, schedule: Q04DX003 (ip), vehicle: saline with Tween-80
[3] = dose: 400.0 mg/kg/injection, schedule: Q04DX003 (ip), vehicle: saline with Tween-80
[4] = dose: 100.0 mg/kg/injection, schedule: Q04DX003 (ip), vehicle: Klucel (hydroxypropylcellulose) (HPC)
[5] = dose: 200.0 mg/kg/injection, schedule: Q04DX003 (ip), vehicle: Klucel (hydroxypropylcellulose) (HPC)
[6] = dose: 400.0 mg/kg/injection, schedule: Q04DX003 (ip), vehicle: Klucel (hydroxypropylcellulose) (HPC)
[7] = dose: 50.0 mg/kg/injection, schedule: Q01DX009 (ip), vehicle: saline
[8] = dose: 100.0 mg/kg/injection, schedule: Q04DX003 (ip), vehicle: saline
[9] = dose: 100.0 mg/kg/injection, schedule: Q01DX009 (ip), vehicle: Klucel (hydroxypropylcellulose) (HPC)
[10] = dose: 200.0 mg/kg/injection, schedule: Q01DX009 (ip), vehicle: Klucel (hydroxypropylcellulose) (HPC)
[11] = dose: 400.0 mg/kg/injection, schedule: Q01DX009 (ip), vehicle: Klucel (hydroxypropylcellulose) (HPC)
[12] = dose: 50.0 mg/kg/injection, schedule: Q01DX009 (ip), vehicle: Klucel (hydroxypropylcellulose) (HPC)

Measured: T/C

COc1ccc(CCO)cc1
inactive: [1] 92 % of control | [2] 101 % of control | [3] 95 % of control

O=S(=O)(Cl)OC(CCl)C(OS(=O)(=O)Cl)C(OS(=O)(=O)Cl)C(CCl)OS(=O)(=O)Cl (centres undefined)
inactive: [1] 102 % of control | [2] 97 % of control | [3] 114 % of control

Cc1ccc(C(=O)c2ccccc2)cc1
inactive: [4] 97 % of control | [5] 104 % of control | [6] 92 % of control

CCN(CC)CCCC(C)Nc1c2ccc(Cl)cc2nc2cc(Cl)ccc12 (centres undefined)
inactive: dose: 25.0 mg/kg/injection, schedule: Q01DX009 (ip), vehicle: saline 92 % of control | dose: 25.0 mg/kg/injection, schedule: Q04DX003 (ip), vehicle: saline 100 % of control | [7] 95 % of control | dose: 50.0 mg/kg/injection, schedule: Q04DX003 (ip), vehicle: saline 98 % of control | [8] 93 % of control and 86 % of control

CCOC(=O)/C=C(\CC(=O)O)Nc1ccccc1
inactive: dose: 100.0 mg/kg/injection, schedule: Q01DX001 (ip), vehicle: saline 90 % of control | dose: 200.0 mg/kg/injection, schedule: Q01DX001 (ip), vehicle: saline 93 % of control | dose: 400.0 mg/kg/injection, schedule: Q01DX001 (ip), vehicle: saline 95 % of control

CC(=O)Nc1ccc(S(=O)(=O)Nc2cc(C)ccc2C)cc1
inactive: [9] 94 % of control | [10] 103 % of control | [11] 103 % of control

CC(=O)OC1CC2CCC1(C)C2(C)C (centres undefined)
inactive: dose: 50.0 mg/kg/injection, schedule: Q01DX009 (ip), vehicle: saline with Tween-80 100 % of control | [7] 96 % of control | dose: 100.0 mg/kg/injection, schedule: Q01DX009 (ip), vehicle: saline with Tween-80 96 % of control | dose: 100.0 mg/kg/injection, schedule: Q01DX009 (ip), vehicle: saline 98 % of control | [8] 87 % of control | dose: 200.0 mg/kg/injection, schedule: Q01DX009 (ip), vehicle: saline with Tween-80 96 % of control | dose: 200.0 mg/kg/injection, schedule: Q01DX009 (ip), vehicle: saline 89 % of control | dose: 200.0 mg/kg/injection, schedule: Q04DX003 (ip), vehicle: saline 90 % of control

Cc1ccc(C(=O)C2CC=CCC2C(=O)c2ccc(C)cc2)cc1 (centres undefined)
inactive: [12] 97 % of control | [9] 91 % of control | [10] 92 % of control | [11] 90 % of control

Cc1cc(=O)n2c3c(c4c(cc13)c(CBr)cc(=O)n4C)OC2
inactive: dose: 25.0 mg/kg/injection, schedule: Q01DX009 (ip), vehicle: Klucel (hydroxypropylcellulose) (HPC) 86 % of control | [12] 102 % of control | dose: 75.0 mg/kg/injection, schedule: Q01DX009 (ip), vehicle: Klucel (hydroxypropylcellulose) (HPC) 94 % of control and 87 % of control | [4] 103 % of control | [5] 93 % of control | [6] 104 % of control

NC(=O)N/N=C1/CCCC(C(=O)O)C1 (centres undefined)
inactive: dose: 100.0 mg/kg/injection, schedule: Q01DX001 (ip), vehicle: Klucel (hydroxypropylcellulose) (HPC) 105 % of control | [4] 102 % of control | dose: 200.0 mg/kg/injection, schedule: Q01DX001 (ip), vehicle: Klucel (hydroxypropylcellulose) (HPC) 109 % of control | [5] 98 % of control | dose: 400.0 mg/kg/injection, schedule: Q01DX001 (ip), vehicle: Klucel (hydroxypropylcellulose) (HPC) 103 % of control | [6] 100 % of control
